Measurements from patent US4529589A, “Pharmaceutical composition for the treatment of diabetes mellitus” (priority 1981, dated 1985).

How the values were obtained:
[1] = test system: volunteer suffering from diabetes; assay: sugar curve after dietic breakfast in volunteer with diabetes in a light form; assay type: in vivo, human
Procedure: Volunteer (body weight 89 kg) suffered from diabetes in a light form for 10 years. The blood sugar level in the morning on empty stomach was varied from 125 to 190 mg%. On recommendation of the endocrinologist, they were treated with maninyl in a dose of from 0.00125 to 0.0025 g (1/4-1/2 of a tablet) a day. 6 tests were performed including 1 control sugar curve at the background of administration of a dietic breakfast, the 2-nd test--the same curve but with administration, during breakfast, of 0.00125 g of maninyl and 4 tests with the preparation according to the present invention. The doses of insulin in the plates of the preparation of this invention were […]. The duration of resorption of the plates was 9 to 36 minutes. The breakfast was 9-37 minutes thereafter.
The sugar curve obtained after the control test against the background of having a dietic breakfast without hypoglycemic remedies had the following character: the starting blood sugar level was 125 mg%; after 30 minutes since the breakfast--153 mg%; 60 minutes thereafter--155 mg%, 2 hours thereafter--135 mg%, i.e., after 30 and 60 minutes, the blood sugar level was increased by 22 and 24% respectively relative to the initial value.
In a week, the test was repeated; however, during the dietic breakfast, the volunteer was administered 0.00125 g of maninyl (1/4 of a tablet). […] The absolute level of blood sugar was as high as 200 mg%. After 120 minutes, a high blood sugar level was retained--170 mg% which was by 10% higher than the initial value on the same day of investigation.
One week afterwards, the experiment was repeated. The initial level of blood sugar was equal to 190 mg%. The volunteer was administered a plate of the preparation of this invention containing 16 units of insulin (test dose) sublingually; 30 minutes thereafter, the volunteer had breakfast (dietic one). 30 minutes after the breakfast, the blood sugar level was increased up to 200 mg% (by 5% altogether) which was by 17% below the raise in the control test; after 60 minutes--by 26% (240 mg%) which substantially corresponded to the level raise in the control investigation (+2%) and after 120 minutes--reduced by 8% of the initial value (175 mg%) which was by 16% below the level in the control test.

[2] = test system: volunteer patients-physicians; assay: sugar curve after glucose load per os (0.7 g/kg) in volunteers; assay type: in vivo, human; conditions: for decrease in the blood sugar level as compared to the control sugar curve: subcutaneous 16 units (after volunteer I.)
Procedure: The pharmaceutical preparation for the treatment of diabetes mellitus has been studied on volunteer patients-physicians. The experiments have been performed on 8 volunteers. 58 tests were carried out including 9 control tests without administration of insulin, 6 control tests with subcutaneous administration of insulin and 43 experimental tests with the administration of plates of the preparation according to the present invention. The control investigation--a sugar curve--has been taken for every volunteer. This involved determination of the blood sugar level in an empty stomach, whereafter the patient was administered glucose per os at the rate of 0.7 g/kg of the body weight diluted with 200 ml of warm water and then the blood sugar level was determined after 30, 60 and 120 minutes. Therefore, in this manner, the blood sugar level variations were determined under the effect of administration of gluclose including the determination of the maximum increase as a percentage of the starting sugar level in blood in the empty-stomach state. After 1-2 weeks, the investigation with a similar sugar load was repeated simultaneously with subcutaneous administration of crystalline insulin at the rate of 0.1-0.2 unit/kg of the body weight right after the administration of the same dose of glucose. After an additional 1-2 weeks, the investigation with the preparation according to the present invention has been carried out. The preparation according to the present invention in the form of plates of a polymer was placed under the tongue by application of the plates to the lower lingual surface at its root or at any other suitable place of the mucous membrane of the mouth cavity. The content of insulin in the plates was varied from 8 to 150 units. After a complete resorption of the plate, maximum within 60 minutes, the volunteer was given a standard dose of glucose per os. The blood examination for sugar has been performed on an empty stomach after 30, 60 and 120 minutes since the glucose administration. The hypoglycemic effect of the test preparations was evaluated by the difference in sugar levels in blood (%) as compared to the control test (without insulin).

patients = conditions: subcutaneous (sometimes intramuscular) injection, majority of patients; cited from earlier work

Molecule: COc1ccc(Cl)cc1C(=O)NCCc1ccc(S(=O)(=O)NC(=O)NC2CCCCC2)cc1 [maninyl]
- raise of the sugar curve, % of the initial value ([1]; 0.00125 g during dietic breakfast, after 30 and 60 minutes, starting level 155 mg%): +29%
- blood sugar level higher than the initial value ([1]; 0.00125 g during dietic breakfast, after 120 minutes): 10%
- absolute level of blood sugar (as high as) ([1]; 0.00125 g during dietic breakfast, starting level 155 mg%): 200 mg%
- hypoglycemic effect (in words) ([1]; dose prescribed by the endocrinologist): no hypoglycemic effect at all

Molecule: crystalline insulin: crystalline insulin administered subcutaneously as comparison
- sugar level higher than the control value ([2]; subcutaneous 8 units (volunteer D.), after 30 minutes): 6%
- sugar level below the control level ([2]; subcutaneous 8 units (volunteer D.), after 60 minutes): 60%
- sugar level above the control level ([2]; subcutaneous 8 units (volunteer D.), after 120 minutes): 20%
- blood sugar level exceeded the control value ([2]; subcutaneous 8 units (volunteer P.), after 30 minutes): 16%
- blood sugar level below the control value ([2]; subcutaneous 8 units (volunteer P.), after 60 minutes): 43%
- blood sugar level below the control ([2]; subcutaneous 8 units (volunteer P.), after 120 minutes): 12%
- blood sugar level increased as compared to the initial value ([2]; subcutaneous 8 units with 56 g glucose (volunteer D.), after 30 minutes): 86%
- blood sugar level increased as compared to the initial value ([2]; subcutaneous 8 units with 56 g glucose (volunteer D.), after 60 minutes): 40%
- blood sugar level increased as compared to the initial value ([2]; subcutaneous 8 units with 56 g glucose (volunteer D.), after 120 minutes): 33%
- blood sugar level increased as compared to the initial value ([2]; subcutaneous 8 units with 56 g glucose (volunteer P.), after 30 minutes): 87%
- blood sugar level lowered ([2]; subcutaneous 8 units with 56 g glucose (volunteer P.), after 60 minutes): 53%
- blood sugar level relative to the initial level (in words) ([2]; subcutaneous 8 units with 56 g glucose (volunteer P.), after 120 minutes): returned to the initial level
- decrease in the blood sugar level as compared to the control sugar curve ([2]; after 30 minutes): 55%
- decrease in the blood sugar level as compared to the control sugar curve ([2]; after 60 minutes): 18%
- decrease in the blood sugar level as compared to the control sugar curve ([2]; after 120 minutes): 34%
- sugar level in blood increased relative to the initial value ([2]; subcutaneous 16 units with 56 g glucose (after volunteer I.), after 30 minutes): 31%
- sugar level in blood increased relative to the initial value ([2]; subcutaneous 16 units with 56 g glucose (after volunteer I.), after 60 minutes): 13%
- sugar level in blood reduced relative to the initial value ([2]; subcutaneous 16 units with 56 g glucose (after volunteer I.), after 120 minutes): 7%
- time to maximum effect (patients): 2 to 5 h
